# B1: Ang-2: Human recombinant angiopoietin-2 purchased from R&D systems; Tie-2 ligand (protein, listed as Homo sapiens)
# chain: MWQIVFFTLSCDLVLAAAYNNFRKSMDSIGKKQYQVQHGSCSYTFLLPEMDNCRSSSSPYVSNAVQRDAPLEYDDSVQRLQVLENIMENNTQWLMKLENYIQDNMKKEMVEIQQNAVQNQTAVMIEIGTNLLNQTAEQTRKLTDVEAQVLNQTTRLELQLLEHSLSTNKLEKQILDQTSEINKLQDKNSFLEKKVLAMEDKHIIQLQSIKEEKDQLQVLVSKQNSIIEELEKKIVTATVNNSVLQKQQHDLMETVNNLLTMMSTSNSAKDPTVAKEEQISFRDCAEVFKSGHTTNGIYTLTFPNSTEEIKAYCDMEAGGGGWTIIQRREDGSVDFQRTWKEYKVGFGNPSGEYWLGNEFVSQLTNQQRYVLKIHLKDWEGNEAYSLYEHFYLSSEELNYRIHLKGLTGTAGKISSISQPGNDFSTKDGDNDKCICKCSQMLTGGWWFDACGPSNLNGMYYPQRQNTNKFNGIKWYYWKGSGYSLKATTMMIRPADF
# How the values were obtained:
# [1] = tested on: HMVEC monolayers; assay: Immunofluorescence of endothelial architecture (F-actin, VE-cadherin); type: cell-based, human; details: for reversal of Ang-2 induced thick actin stress fibers and paracellular gaps: Ang-2 100 ng/ml, inhibitor 10 μM, 5 hours
# Protocol: HMVEC were grown to confluence on glass coverslips coated with 1% gelatin. The cells were fixed for 10 minutes in 4% paraformaldehyde in PBS, incubated for 5 min in 0.5% Triton X-100 in PBS. After blocking, the monolayers were processed for staining with anti-VE-cadherin monoclonal antibody (BD Pharmingen, San Diego, Calif.) and Alexa Fluoro 488 goat anti-mouse IgG, rhodamine phalloidin (Molecular Probe, Eugene, Oreg.) for F-actin staining and TOPRO-3-iodine (Molecular Probe) for nuclear staining. Fluorescence images were obtained using a Bio Rad MRC confocal fluorescence microscope. For human subject serum experiments, serum was diluted to 10% with EBM-2 and filtered with low protein binding PVDF membrane (0.22 μm, Millipore Corp) prior to application on endothelial cell monolayers.
# [2] = tested on: myosin light chain (MLC) phosphorylation in HMVECs; assay: MLC phosphorylation assay (Western blot); type: cell-based, human; details: for effect on Ang-2-induced phosphorylation of MLC: inhibitor 10 μM
# Protocol: After signal starvation with 0.25% FBS EBM-2 for 24 h, cells were treated with 100 ng/ml Ang-2 or vehicle for 0, 1, 3, and 6 hours. Phosphorylated myosin light chain (MLC-p) (phospho-serine 19) and GAPDH were detected by Western blot analysis. For human subject serum effects on HMVECs, serum was diluted to 5% with EBM-2 and filtered with low protein binding PVDF membrane (0.22 μm, Millipore Corp, Bedford, Mass.). Anti-MLC-phospho-serine-19 Ab was obtained from Abcam Inc.
# [3] = tested on: RhoA; assay: Rho activity assay (pull-down) in HMVEC-L; type: cell-based, human; details: p190RhoGAP siRNA
# Protocol: (§1) These were performed and quantified using the commercially available kit according to the manufacturer's instruction (Cytoskeleton, Denver, Colo.). After signal starvation, HMVEC-L were treated with vehicle, Ang-1 (100 ng/ml) with or without inhibitor for the indicated time and harvested with lysis buffer. Following a brief centrifugation to remove cell debris, lysates from the cells containing equivalent protein concentrations were incubated for 60 minutes with 40 μL slurry of a GST-fusion protein composed of Rac1 or RhoA effector proteins coupled to agarose beads. After washing with lysis buffer, samples were subjected to immunoblotting and detected with anti-Rac1 or anti-RhoA antibody (Santa Cruz Biotechnology, Santa Cruz, Calif.). Whole cell lysates were also run to determine the total amount of Rac1 or RhoA protein.
# [4] = tested on: p190RhoGAP; assay: siRNA knockdown of p190RhoGAP in HMVEC-L (immunoblot); type: cell-based, human
# Protocol: (§2) [A] is abluminal concentration; t is time in seconds; A is area of membrane in cm^2; V is volume of abluminal chamber; and [L] is luminal concentration. siRNA Transfection: HMVEC-Ls were seeded and control small interfering RNA (siRNA) (Ambion, Ausin, Tex.) or siRNA directed to human p190RhoGAP (5′-[…]-3′ SEQ ID NO: 5 and 5′-[…]-3′ SEQ ID NO: 6) was transfected using SilentFect Lipid reagent (Bio-Rad) according to the manufacturer's instructions. The cells were used for each experiment 3 days after transfection. Almost 90-100% cells were transfected with siRNA (checked by fluorescent labeled siRNA). Down-regulation of p190RhoGAP was verified by immunoblotting. We tested two different siRNA for the experiment and obtained similar results.
# [5] = tested on: mice (female FVB strain), lung; assay: In vivo permeability assay (Evans blue, LPS); parameters: species or system mouse; details: p190RhoGAP siRNA, endotoxin plus Ang-1
# Protocol: Mice (8-12 weeks old, female FVB strain) were pretreated with Ang-1 (10 mcg, ip). 8 hours after the first Ang-1 injection, the second dose of Ang-1 (10 mcg, ip) and LPS (100 μg, ip) were co-injected. Lung permeability was assessed 16 hours after the second injection. Mice were anesthetized with Avertin (2,2,2-Tribromoethanol) and 2% Evans blue (50 μl) was then injected into the retro-orbital sinus. Ten minutes after Evans blue injection, mice were sacrificed and perfused with PBS with 2 mM EDTA for 10 minutes through a cannula placed in the right ventricle. […] Organs were then harvested and homogenized in 1.5 nil formamide. Evans blue was extracted by incubating the samples at 70° C. for 24 hours, and the concentration of Evans blue was estimated by dual-wavelength spectrophotometer (620 and 740 nm). The following formula was used to correct optical densities (E) for contamination with heme pigments: E620 (corrected)=E620−(1.426XE740+0.030).
# [6] = tested on: p190RhoGAP; assay: In vivo delivery of siRNA, p190RhoGAP in mouse lung (Western); details: 10 μg siRNA, hydrodynamic tail vein delivery
# Protocol: Mice were treated as above and lungs were harvested, fixed in 10% formalin, embedded in paraffin, sectioned, and stained with hematoxilin and eosin. In Vivo Delivery of siRNA: Delivery of siRNA into mice was performed by TransIT® Hydrodynamic delivery solution (Mires, Madision, Wis.) per the manufacturer's instruction. Mice were injected with either 10 μg control siRNA or 10 μg p190RhoGAP siRNA in 2 nil delivery solution injected into the tail vein over 7 seconds. Four days later, p190RhoGAP knockdown was confirmed by lysing organs in RIPA buffer and performing Western analysis as outlined above. In vivo permeability and histological examination were performed as described above.
# [7] = tested on: HMVEC-L monolayer; assay: Measurement of endothelial permeability in vitro (FITC-albumin); type: cell-based, human; details: p190RhoGAP siRNA
# Protocol: (§3) Coster Transwell membranes (Corning Inc. Corning, N.Y.) were coated with 0.5% Gelatin and cells were grown until confluence. Vehicle or proteins with FITC-albumin (1 mg/ml) was added to the luminal chamber for 4 hours, and samples were taken from both the luminal and abluminal chamber for fluorometry analysis. The readings were converted with the use of a standard curve to albumin concentration. These concentrations were then used in the following equation to determine the permeability coefficient of albumin (Pa).
# as §2
# [8] = tested on: Rac1; assay: Rac1 activity assay (pull-down); type: cell-based, human; details: p190RhoGAP siRNA
# Protocol: as §1
# [9] = tested on: healthy adult mice; assay: Lung wet-to-dry weight ratio; type: in vivo, mouse; details: Ang-2 treatment for 16 hours
# Protocol: Lung wet weight (W) was determined immediately after removal of the right lung. Lung dry weight (D) was determined after the lung had been dried in an oven at 50° C. for 24 hours. The W/D ratio was calculated by dividing the wet weight by the dry weight.
# [10] = tested on: healthy adult mice; assay: Evans blue permeability assay after systemic Ang-2; type: in vivo, mouse; details: Ang-2 10 μg i.p., 16 hours
# Protocol: Mice were injected with 10 μg of Ang-2 or vehicle intraperitoneal (i.p.) and, after 16 hours, were anesthetized with Avertin (2,2,2-tribromoethanol). 2% Evans blue (50 μl) was then injected into the retro-orbital sinus. (In preliminary experiments with control mice, n=6, we confirmed that the retro-orbital sinus provided a route of intravascular injection that allowed near-100% delivery of Evans blue in a reproducible fashion.) 10 minutes after Evans blue injection, mice were sacrificed and perfused with PBS for 10 minutes through a cannula placed in the right ventricle. Blood and PBS were vented through an incision in the vena cava. […] Washout of intravascular contents was also confirmed histologically after 10 minutes PBS perfusion. After homogenization in 1.5 ml formamide, Evans blue was extracted by incubating the samples at 70° C. for 24 hours, and the concentration of Evans blue was estimated by dual-wavelength spectroscopy to correct for heme E620 nm (corrected)=E620 nm−(1.426*E740 nm+0.030).
# [11] = tested on: RhoA; assay: Rho activity pull-down assay; type: cell-based, human; details: Ang-2 100 ng/ml
# Protocol: RhoA activity assay was performed and quantified using the RhoA activation assay kit according to the manufacturer's instruction (Cytoskeleton, Denver, Colo.). Lysates from control and Ang-2-treated cells containing equivalent protein concentrations were rotated for 60 minutes with 40 μl slurry of a GST-fusion protein composed of the Rho-binding domain of the specific RhoA effector rhotekin coupled to agarose beads. Beads were collected by centrifugation and washed three times with lysis buffer. Whole cell lysates from both control and Ang-2-treated cells were also run to determine baseline levels of total RhoA protein. Separated proteins were transferred to PVDF and immunoblotted with a monoclonal antibody to RhoA (Santa Cruz Biotechnology, Santa Cruz, Calif.).
# [12] = tested on: Tie-2; assay: Tie-2 phosphorylation (immunoprecipitation and Western blot); type: cell-based, human; details: HMVECs stimulated with Ang-2 100 ng/ml
# Protocol: 200 μg of total protein were incubated with anti-Tie2 antibody for 3 hours, followed by incubation with protein A sepharose (Zymed, San Francisco, Calif.) for 2 hours at 4° C. After washing the beads, proteins were eluted by heating in SDS-sample buffer and detected by Western blot analysis with Anti-phospho-tyrosine (clone 4G10, Upstate Cell Signaling Solutions) as described before.
# [13] = tested on: healthy adult mice; assay: Lung histology after systemic Ang-2; type: in vivo, mouse; details: 3 hour after systemic Ang-2 administration
# Description: Lungs were harvested, fixed in 10% formalin, embedded in paraffin, sectioned, and stained with hematoxylin and eosin.
# [14] = tested on: HMVEC monolayer; assay: FITC-albumin permeability assay; type: cell-based, human; details: Ang-2 400 ng/ml, 8 hours
# Protocol: as §3, with “HMVEC monolayer permeability was determined with the use of FITC-labeled bovine serum albumin (Sigma) as described elsewhere (Tinsley et al., Am. J. Physiol Cell Physiol. 279: C1285-1289 (2000)). Coster” for “Coster”, “fibronectin” for “0.5% Gelatin”, “Ang-2 (400 ng/ml)” for “proteins”, “(final 1” for “(1”, “8” for “4”
# where [A] is abluminal concentration; t is time in seconds; A is area of membrane in cm2; V is volume of abluminal chamber; and [L] is luminal concentration. siRNA transfection of endothelial cells: HMVECs were seeded on 10 cm dishes for Western blot (or on 1% gelatin-coated coverslips for immunohistochemistry experiments) 24 hour before experiments. […] of validated, annealed small interfering RNA (siRNA) (Ambion, Inc. Austin Tex.) directed to human Tie-2 was transfected using silentFect Lipid reagent (Bio-Rad) according to manufacturer's instructions. Three days after transfection, cells were used for experiments. […]
molecule,measurement,setting,value
"C[C@@H](N)[C@H]1CC[C@H](C(=O)Nc2ccncc2)CC1 [Y27632, reference compound]",reversal of Ang-2 induced thick actin stress fibers and paracellular gaps,[1],completely reversed
same,effect on Ang-2-induced phosphorylation of MLC,[2]; Ang-2 100 ng/ml,completely abolished
"O=S(=O)(c1cccc2c(I)cccc12)N1CCCNCC1 [ML-7, reference compound]",reversal of Ang-2 induced thick actin stress fibers and paracellular gaps,[1],partially reversed
same,effect on Ang-2-induced phosphorylation of MLC,[2]; Ang-2 100 ng/ml,partially inhibited
CC(C)=C[C@H](O)C1=C[C@@H](O)[C@@H]2O[C@@H]2C1=O [Panepoxydone],effect on Ang-2 mediated MLC phosphorylation,[2]; panepoxydone added to EC monolayers,marked inhibition
"p190RhoGAP siRNA: siRNA directed to human p190RhoGAP (SEQ ID NO: 5 and 6) (chain 1 GGAUUGUGUGGAAUGUAAG; chain 2 CUUACAUUCCACACAAUCC; listed as RNA, chemistry not given here) [reference compound]",effect on Ang-1-induced RhoA inhibition,[3],abolish
same,block of p190RhoGAP expression,[4],90%
same,effect on protection by Ang-1 in the lung,[5],sufficient to block the protective effect of Ang-1
same,p190RhoGAP expression in lung tissue,[6],diminished p190RHoGAP expression
same,effect on basal permeability,[7],little effect
same,effect on rescue by Ang-1,[7]; endotoxin plus Ang-1,prevent the rescue effect of Ang-1
same,effect on Ang-1-induced Rac1 activation,[8],did not affect
B1,lung wet/dry weight (W/D) ratio,[9],6.13±0.03
same,extravasated Evans blue in intestines versus vehicle,[10],trend toward increased permeability
same,extravasated Evans blue in livers versus vehicle,[10],twofold increase
same,extravasated Evans blue in lungs versus vehicle,[10],threefold increase
same,active form of RhoA (Rho-GTP),[11],increased the active form of RhoA
same,time of peak Rho-GTP,[11],peaking between 30 minutes and 1 hour
same,actin stress fibers and intercellular gaps,"[1]; recombinant human Ang-2 100 ng/ml alone, HMVECs",induced the formation of thick actin stress fibers and intercellular gaps
same,effect on Tie-2 phosphorylation,[12],inhibitory effect
same,lung histology,[13],increase in congestion and early extravasation into the interstitium
same,MLC phosphorylation on stimulation with Ang-2 alone,"[2]; Ang-2 100 ng/ml, serum-starved HMVECs",elevated at 3 hours and 6 hours
same,increase in permeability (Pa of FITC-albumin) compared with control,[14],approximately 20%
